Assay results taken from patent US12514858B2, “CD38 inhibitors” (Astellas Engineered Small Molecules US, Incorporated, priority 2020, dated 2026).
pIC50: −log10 of the molar value. “And” between values parts separate entries of the source, which are not always exact repeats. Equal entries are not always repeated.

Each compound was assayed against Human CD38 (Homo sapiens (Human), UniProt P28907) (assay: Determination of IC50 against human CD38 (CD38 Inhibitor Screening Assay Kit, glycohydrolase activity, fluorescence)). Conditions: CD38 hydrolase enzyme, 30 min preincubation at room temperature, F-NAD substrate, excitation 300 nm, emission 410 nm; read-out: hCD38 IC50.
Human CD38, sequence (P28907 whole entry): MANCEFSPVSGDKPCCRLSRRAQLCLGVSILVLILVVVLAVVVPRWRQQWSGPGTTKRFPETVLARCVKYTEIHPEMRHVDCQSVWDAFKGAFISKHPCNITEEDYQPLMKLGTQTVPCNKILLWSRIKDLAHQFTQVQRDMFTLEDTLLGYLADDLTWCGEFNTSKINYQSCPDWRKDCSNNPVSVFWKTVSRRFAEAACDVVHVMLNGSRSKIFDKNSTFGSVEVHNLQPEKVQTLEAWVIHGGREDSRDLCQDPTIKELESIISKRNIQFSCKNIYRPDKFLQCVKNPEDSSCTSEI
Type: biochemical
Description: CD38 hydrolase buffer (4×) was thawed on ice and 1×CD38 hydrolase buffer was prepared by diluting 4×CD38 hydrolase buffer with water. CD38 hydrolase enzyme was diluted to […] with 1×CD38 hydrolase buffer (10 ng/well). Master mix was prepared by mixing equal volumes of water and CD38 hydrolase buffer (4×) and 10 μl of the mix was added to all the wells. Following master mix addition, 10 μl of the inhibitors and 20 μl of CD38 hydrolase enzyme were added to the wells. For wells designated blank, 10 μl and 20 μl of 1× CD38 hydrolase buffer was added respectively in place of […]. The plate was covered and incubated 30 min at room temperature with slow shaking at 400 rpm. After 30 min incubation, the plate was removed and 10 μl of diluted F-NAD substrate was added to all the wells. The plate is incubated for 10 min, spun at 1200 rpm for 30 secs to remove bubbles and read in Tecan Spark using a fluorometer setting of excitation 300 nm and emission 410 nm. The reading for the blank was subtracted from all the values. IC50 for the test compounds were determined by using Graphpad prism software v7.0.

Point of comparison: `COCCO[C@H]1CC[C@H](NC(=O)c2cc(CF)nc(-n3ccnc3)n2)CC1` [Ex. 51, 6-(fluoromethyl)-2-(1H-imidazol-1-yl)-N-((1r,4r)-4-(2-methoxyethoxy)cyclohexyl)pyrimidine-4-carboxamide], pIC50 7.77. Against it:
- COCCO[C@H]1CC[C@H](NC(=O)c2cc(S(C)(=O)=O)cc(-n3ccnc3)n2)CC1 [Ex. 39, 6-(1H-imidazol-1-yl)-N-((1r,4r)-4-(2-methoxyethoxy)cyclohexyl)-4-(methylsulfonyl)picolinamide] — 0.91 log units lower, 6.86
- COCCO[C@H]1CC[C@H](NC(=O)c2cc(C(C)(C)O)cc(-n3ccnc3)n2)CC1 [Ex. 40, 4-(2-Hydroxypropan-2-yl)-6-(1H-imidazol-1-yl)-N-((1r,4r)-4-(2-methoxyethoxy)cyclohexyl)picolinamide] — 2.05 log units lower, 5.72
- O=C(N[C@H]1CC[C@H](OC(F)F)CC1)c1ccnc(-n2ccnc2)n1 [Ex. 41, N-((1r,4r)-4-(difluoromethoxy)cyclohexyl)-2-(1H-imidazol-1-yl)pyrimidine-4-carboxamide] — within 0.2 log units, 7.80
- Cc1cc(C(=O)N[C@H]2CC[C@H](OC(F)F)CC2)nc(-n2ccnc2)n1 [Ex. 42, N-((1r,4r)-4-(difluoromethoxy)cyclohexyl)-2-(1H-imidazol-1-yl)-6-methylpyrimidine-4-carboxamide] — 0.55 log units higher, 8.32
- COCCO[C@H]1CC[C@H](NC(=O)c2cc(C#N)cc(-n3ccnc3)n2)CC1 [Ex. 43, 4-Cyano-6-(1H-imidazol-1-yl)-N-((1r,4r)-4-(2-methoxyethoxy)cyclohexyl)picolinamide] — the same, 7.77
- Cc1cc(C(=O)N[C@H]2CC[C@H](OCCO)CC2)nc(-n2ccnc2)n1 [Ex. 44, N-((1r,4r)-4-(2-hydroxyethoxy)cyclohexyl)-2-(1H-imidazol-1-yl)-6-methylpyrimidine-4-carboxamide] — within 0.2 log units, 7.92
- COCCO[C@H]1CC[C@H](NC(=O)c2cc(C(=O)O)nc(-n3ccnc3)n2)CC1 [Ex. 45] — 0.22 log units lower, 7.55
- COCCO[C@H]1CC[C@H](NC(=O)c2cc(C)nc(-n3ccnc3)c2)CC1 [Ex. 46, 2-(1H-imidazol-1-yl)-N-((1r,4r)-4-(2-methoxyethoxy)cyclohexyl)-6-methylisonicotinamide] — 0.93 log units lower, 6.84
- COCCO[C@H]1CC[C@H](NC(=O)c2cc(C#N)nc(-n3ccnc3)n2)CC1 [Ex. 47, 6-cyano-2-(1H-imidazol-1-yl)-N-((1r,4r)-4-(2-methoxyethoxy)cyclohexyl)pyrimidine-4-carboxamide] — 0.26 log units lower, 7.51
- COCCO[C@H]1CC[C@H](NC(=O)c2cc(C(N)=O)nc(-n3ccnc3)n2)CC1 [Ex. 48, 2-(1H-imidazol-1-yl)-N-((1r,4r)-4-(2-methoxyethoxy)cyclohexyl)pyrimidine-4,6-dicarboxamide] — within 0.2 log units, 7.74
- COCCO[C@H]1CC[C@H](NC(=O)c2cc(CO)nc(-n3ccnc3)n2)CC1 [Ex. 49, 6-(hydroxymethyl)-2-(1H-imidazol-1-yl)-N-((1r,4r)-4-(2-methoxyethoxy)cyclohexyl)pyrimidine-4-carboxamide] — within 0.2 log units, 7.82
- [2H]c1nc([2H])n(-c2nc(C)cc(C(=O)N[C@H]3CC[C@H](OCCOC)CC3)n2)c1[2H] [Ex. 50, 2-(1H-imidazol-1-yl-d3)-N-((1r,4r)-4-(2-methoxyethoxy)cyclohexyl)-6-methylpyrimidine-4-carboxamide] — within 0.2 log units, 7.85
- COCCO[C@H]1CC[C@H](NC(=O)c2cc(C(F)F)nc(-n3ccnc3)n2)CC1 [Ex. 52, 6-(Difluoromethyl)-2-(1H-imidazol-1-yl)-N-((1r,4r)-4-(2-methoxyethoxy)cyclohexyl)pyrimidine-4-carboxamide] — 0.72 log units lower, 7.05
- CO[C@]1(C)CC[C@@H](NC(=O)c2ccnc(-n3ccnc3)n2)CC1 [Ex. 54, 2-(1H-imidazol-1-yl)-N-((1r,4r)-4-methoxy-4-methylcyclohexyl)pyrimidine-4-carboxamide] — 0.22 log units lower, 7.55
- COCCO[C@H]1CC[C@H](NC(=O)c2cc(C3CC3)nc(-n3ccnc3)n2)CC1 [Ex. 56, 6-cyclopropyl-2-(1H-imidazol-1-yl)-N-((1r,4r)-4-(2-methoxyethoxy)cyclohexyl) pyrimidine-4-carboxamide] — 0.47 log units lower, 7.30
- C=Cc1cc(C(=O)N[C@H]2CC[C@H](OCCOC)CC2)nc(-n2ccnc2)c1 [Ex. 57, 6-(1H-imidazol-1-yl)-N-((1r,4r)-4-(2-methoxyethoxy)cyclohexyl)-4-vinylpicolinamide] — 0.37 log units lower, 7.40
- CCO[C@H]1CC[C@H](NC(=O)c2ccnc(-n3ccnc3)n2)CC1 [Ex. 58, N-((1r,4r)-4-ethoxycyclohexyl)-2-(1H-imidazol-1-yl)pyrimidine-4-carboxamide] — within 0.2 log units, 7.78
- COCCO[C@H]1CC[C@H](NC(=O)c2cc(C(F)F)cc(-n3ccnc3)n2)CC1 [Ex. 59, 4-(difluoromethyl)-6-(1H-imidazol-1-yl)-N-((1r,4r)-4-(2-methoxyethoxy)cyclohexyl)picolinamide] — within 0.2 log units, 7.68
- COCCO[C@H]1CC[C@@H](NC(=O)c2cc(C)nc(-n3ccnc3)n2)CC1 [Ex. 60, 2-(1H-imidazol-1-yl)-N-((1s,4s)-4-(2-methoxyethoxy)cyclohexyl)-6-methylpyrimidine-4-carboxamide] — 0.85 log units higher, 8.62
- COCCO[C@H]1CC[C@H](NC(=O)c2cc(OC)cc(-n3ccnc3)n2)CC1 [Ex. 62, 6-(1H-imidazol-1-yl)-4-methoxy-N-((1r,4r)-4-(2-methoxyethoxy)cyclohexyl) picolinamide] — 0.71 log units lower, 7.06
- COCCO[C@H]1C[C@H](NC(=O)c2ccnc(-n3ccnc3)n2)C1 [Ex. 65, 2-(1H-imidazol-1-yl)-N-((1r,3r)-3-(2-methoxyethoxy)cyclobutyl)pyrimidine-4-carboxamide] — 1.13 log units lower, 6.64

For `CCS(=O)(=O)N[C@H]1CC[C@H](NC(=O)c2ccnc(-n3ccnc3)n2)CC1` [Ex. 53, N-((1r,4r)-4-(ethylsulfonamido)cyclohexyl)-2-(1H-imidazol-1-yl)pyrimidine-4-carboxamide], the pIC50 was 7.78 and 8.06.
